From patent US6730674B2, “Sulfonyl pyridazinone compounds useful as aldose reductase inhibitors” (Pfizer Inc, priority 2001, dated 2004)

Structure (SMILES)	melting point [°C]
O=c1ccc(S(=O)(=O)c2ccc(Cl)c(Cl)c2)n[nH]1 [Example 4D, 6-(3,4-Dichloro-benzenesulfonyl)-2H-pyridazin-3-one]	166 to 168
O=c1ccc(S(=O)(=O)c2cccc(Br)c2)n[nH]1 [Example 4I, 6-(3-Bromo-benzenesulfonyl)-2H-pyridazin-3-one]	> 220
Cc1cc(Cl)cc(S(=O)(=O)c2ccc(=O)[nH]n2)c1 [Example 4M, 6-(3-Chloro-5-methyl-benzenesulfonyl)-2H-pyridazin-3-one]	> 250
O=c1ccc(S(=O)(=O)c2c(F)cc(F)cc2Cl)n[nH]1 [Example 4N, 6-(2-Chloro-4,6-difluoro-benzenesulfonyl)-2H-pyridazin-3-one]	> 250
